Counter-ions that a name gives are not always drawn. Like-named read-outs stand apart in the source and are kept apart here.

In series [1] the target is Photinus pyralis (firefly) luciferase (Photinus pyralis, UniProt P08659). Briefly: biochemical. The class given is biochemical.
Series [2] has as its target T1, human CYP1A2 (Homo sapiens, UniProt P05177).
T1 sequence (P05177 1-516): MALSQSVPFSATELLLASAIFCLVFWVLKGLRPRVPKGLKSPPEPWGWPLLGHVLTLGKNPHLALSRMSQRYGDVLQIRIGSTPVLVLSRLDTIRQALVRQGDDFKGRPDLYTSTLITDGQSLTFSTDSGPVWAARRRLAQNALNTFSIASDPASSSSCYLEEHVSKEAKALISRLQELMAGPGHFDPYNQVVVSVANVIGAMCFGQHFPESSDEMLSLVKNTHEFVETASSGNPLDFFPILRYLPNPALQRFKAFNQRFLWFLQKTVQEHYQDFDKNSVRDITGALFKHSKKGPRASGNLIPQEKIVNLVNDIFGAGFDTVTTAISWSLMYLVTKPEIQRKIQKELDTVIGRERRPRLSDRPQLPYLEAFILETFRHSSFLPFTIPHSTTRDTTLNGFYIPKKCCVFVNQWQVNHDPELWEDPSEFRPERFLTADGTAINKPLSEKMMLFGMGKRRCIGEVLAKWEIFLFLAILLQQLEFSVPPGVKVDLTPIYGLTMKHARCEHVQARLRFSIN
Briefly: biochemical.

Series [3] has as its target T2, human CYP2C9 (Homo sapiens, UniProt P11712). The experiment in a line: biochemical. As to conditions: for AC50: CYP2C9 AC50 (half-maximal activity concentration).
The target in series [4] is T3, human CYP2C19 (Homo sapiens, UniProt P33261). The experiment in a line: biochemical. As to conditions: for AC50: CYP2C19 AC50 (half-maximal activity concentration).
The target in series [5] is human CYP2D6 (Homo sapiens, UniProt P10635). The experiment in a line: biochemical.
Series [6] deals with CYP3A4 (Homo sapiens, UniProt P08684). The experiment in a line: biochemical.
In series [7] the target is T1, human CYP1A2.
In series [8] the target is T2, human CYP2C9.
For series [9], the target named is T3, human CYP2C19.
The mark [10] stands for this setting: CYP1A2 IC50 (half-maximal inhibitory concentration).
Setting [11] is: CYP2C9 IC50 (half-maximal inhibitory concentration).
Setting [12] is: CYP2C19 IC50 (half-maximal inhibitory concentration).
Where [13] appears, read: CYP2D6 IC50 (half-maximal inhibitory concentration).
[14] abbreviates: CYP3A4 IC50 (half-maximal inhibitory concentration).
Where [15] appears, read: CYP1A2 AC50 (half-maximal activity concentration).
The mark [16] stands for this setting: CYP2D6 AC50 (half-maximal activity concentration).
[17] abbreviates: CYP3A4 AC50 (half-maximal activity concentration).

Sequence of Photinus pyralis (firefly) luciferase (P08659 whole entry): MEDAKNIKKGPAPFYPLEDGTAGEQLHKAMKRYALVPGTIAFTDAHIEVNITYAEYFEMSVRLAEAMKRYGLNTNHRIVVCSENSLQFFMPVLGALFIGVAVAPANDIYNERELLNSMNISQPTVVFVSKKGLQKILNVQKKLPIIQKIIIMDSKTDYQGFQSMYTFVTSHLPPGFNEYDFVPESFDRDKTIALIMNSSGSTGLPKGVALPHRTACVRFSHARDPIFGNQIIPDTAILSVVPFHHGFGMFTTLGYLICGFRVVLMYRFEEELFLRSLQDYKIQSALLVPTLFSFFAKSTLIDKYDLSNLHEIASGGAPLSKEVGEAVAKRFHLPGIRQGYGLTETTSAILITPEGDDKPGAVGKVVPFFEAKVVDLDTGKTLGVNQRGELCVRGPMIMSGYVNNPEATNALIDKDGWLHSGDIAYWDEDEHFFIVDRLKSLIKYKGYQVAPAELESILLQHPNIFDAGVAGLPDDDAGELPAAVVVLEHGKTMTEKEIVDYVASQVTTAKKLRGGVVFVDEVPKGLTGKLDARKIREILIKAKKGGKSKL
Sequence of CYP3A4 (P08684 whole entry): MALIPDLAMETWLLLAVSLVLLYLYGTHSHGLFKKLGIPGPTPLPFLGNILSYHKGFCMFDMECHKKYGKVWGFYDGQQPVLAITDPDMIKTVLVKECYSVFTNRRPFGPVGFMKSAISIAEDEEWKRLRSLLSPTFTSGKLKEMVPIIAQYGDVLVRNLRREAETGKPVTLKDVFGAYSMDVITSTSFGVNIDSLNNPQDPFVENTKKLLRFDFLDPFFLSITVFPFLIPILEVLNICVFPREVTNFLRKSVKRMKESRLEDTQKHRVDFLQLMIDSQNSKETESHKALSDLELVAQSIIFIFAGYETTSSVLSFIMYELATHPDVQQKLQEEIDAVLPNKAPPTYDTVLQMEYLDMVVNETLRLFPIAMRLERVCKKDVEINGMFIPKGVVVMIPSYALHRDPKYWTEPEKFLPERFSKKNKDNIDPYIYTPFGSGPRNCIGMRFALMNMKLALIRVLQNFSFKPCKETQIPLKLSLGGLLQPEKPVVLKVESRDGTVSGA
T3 sequence (P33261 whole entry): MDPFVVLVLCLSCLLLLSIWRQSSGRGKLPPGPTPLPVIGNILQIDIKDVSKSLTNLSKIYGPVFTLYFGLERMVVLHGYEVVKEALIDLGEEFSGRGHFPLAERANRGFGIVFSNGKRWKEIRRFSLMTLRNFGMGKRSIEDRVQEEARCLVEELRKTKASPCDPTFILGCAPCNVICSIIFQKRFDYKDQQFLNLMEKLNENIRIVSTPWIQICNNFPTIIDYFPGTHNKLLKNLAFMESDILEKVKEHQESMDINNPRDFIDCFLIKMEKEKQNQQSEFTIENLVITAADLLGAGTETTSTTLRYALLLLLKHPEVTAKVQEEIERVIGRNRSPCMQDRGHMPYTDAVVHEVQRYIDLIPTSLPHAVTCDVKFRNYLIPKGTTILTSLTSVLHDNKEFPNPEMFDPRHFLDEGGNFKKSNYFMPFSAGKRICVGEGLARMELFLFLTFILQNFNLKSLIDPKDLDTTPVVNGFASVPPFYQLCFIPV
Sequence of human CYP2D6 (P10635 whole entry): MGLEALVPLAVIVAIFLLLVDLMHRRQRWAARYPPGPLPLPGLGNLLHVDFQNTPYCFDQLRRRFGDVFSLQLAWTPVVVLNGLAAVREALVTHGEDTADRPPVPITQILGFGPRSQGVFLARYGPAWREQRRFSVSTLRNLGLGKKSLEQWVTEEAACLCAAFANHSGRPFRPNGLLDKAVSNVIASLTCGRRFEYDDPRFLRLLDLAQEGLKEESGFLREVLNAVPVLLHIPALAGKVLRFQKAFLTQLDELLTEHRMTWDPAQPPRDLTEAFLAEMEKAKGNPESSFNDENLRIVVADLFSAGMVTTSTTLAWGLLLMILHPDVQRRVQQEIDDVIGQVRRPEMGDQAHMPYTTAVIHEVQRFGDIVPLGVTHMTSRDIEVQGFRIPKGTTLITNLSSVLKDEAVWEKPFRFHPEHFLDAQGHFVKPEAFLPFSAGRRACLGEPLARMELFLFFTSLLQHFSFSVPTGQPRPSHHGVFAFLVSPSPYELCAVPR
T2 sequence (P11712 whole entry): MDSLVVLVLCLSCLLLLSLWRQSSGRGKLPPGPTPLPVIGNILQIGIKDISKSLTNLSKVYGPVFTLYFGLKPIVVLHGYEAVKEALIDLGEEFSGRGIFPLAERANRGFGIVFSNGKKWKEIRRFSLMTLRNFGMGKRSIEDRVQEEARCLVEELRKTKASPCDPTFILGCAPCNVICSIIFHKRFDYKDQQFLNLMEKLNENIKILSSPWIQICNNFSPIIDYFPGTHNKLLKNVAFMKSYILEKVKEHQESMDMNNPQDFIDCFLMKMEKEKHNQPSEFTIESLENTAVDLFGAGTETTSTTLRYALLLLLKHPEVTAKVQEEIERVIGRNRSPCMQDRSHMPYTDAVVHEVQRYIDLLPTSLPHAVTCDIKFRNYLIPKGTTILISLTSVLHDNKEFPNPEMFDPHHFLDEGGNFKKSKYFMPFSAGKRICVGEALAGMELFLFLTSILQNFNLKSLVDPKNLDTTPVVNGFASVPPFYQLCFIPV

In general, IC50 refers to the concentration that inhibits the measured activity by half. The low end stands for higher potency, the high end for lower potency. Consider `c1ccc2sc(SN(C3CCCCC3)C3CCCCC3)nc2c1`, for which, in [1], the “Luciferase IC50” value is “Inactive”. Also, the IC50 in series [2] (CYP1A2 IC50) stood at 32.9 µM; in [3] (CYP2C9 IC50) it was 8.95 µM; in [4] (CYP2C19 IC50), 15.6 µM; in series [5] (CYP2D6 IC50), 0.56 µM; in [6] (CYP3A4 IC50), 5.16 µM.
As to `Fc1ccc([C@]2(Cn3cncn3)O[C@H]2c2ccccc2Cl)cc1` (racemic) [Epoxiconazole], the “Luciferase IC50 (half-maximal inhibitory concentration)” value in [1] is listed as “Inactive”. Also, the IC50 turned out to be 3.92 µM in series [2] (setting [10]); 5.66 µM in series [3] (setting [11]); 0.34 µM in series [4] (setting [12]); 37 µM in series [5] (setting [13]); 0.91 µM in series [6] (setting [14]).
Consider `CC(C)(C)[C@@H](O)[C@@H](Cc1ccc(Cl)cc1)n1cncn1` (racemic) [Paclobutrazol], for which, in [1], the “Luciferase IC50 (half-maximal inhibitory concentration)” value was “Inactive”. Besides, the concentration for half-maximal inhibition (IC50) in series [2] (setting [10]) was 74.8 µM; in [3] (setting [11]) it was 12.1 µM; in [4] (setting [12]) it was 0.33 µM; in series [5] (setting [13]), 36.8 µM; in series [6] (setting [14]), 0.14 µM.
Take `Cc1ccccc1NC(=N)Nc1ccccc1C` [1,3-Bis(2-methylphenyl)guanidine]: the “Luciferase IC50” value in [1] is “Inactive”. Moreover, in series [7], the “CYP1A2 IC50” value is “Inactive”. The IC50 in series [4] (CYP2C19 IC50) is 1.11 µM; in [5] (CYP2D6 IC50), 0.01 µM; in [6] (CYP3A4 IC50), 41 µM.
On to `Nc1ccc(N)c2c1C(=O)c1ccccc1C2=O` [1,4-Diaminoanthraquinone], for which the IC50 in series [1] was determined as 15.2 µM; in series [2] (setting [10]), 0.35 µM; in [4] (setting [12]), 24.7 µM; in series [5] (setting [13]), 33 µM; in series [6] (setting [14]) it was 5.17 µM.
As for `Cc1ccc2ccc3cccc4ccc1c2c34` [1-Methylpyrene], the IC50 in [1] was 44.9 µM; in [2] (CYP1A2 IC50), 0.86 µM; in series [3] (CYP2C9 IC50), 55.4 µM; in [4] (CYP2C19 IC50), 31.8 µM; in series [5] (CYP2D6 IC50), 55.4 µM; in series [6] (CYP3A4 IC50), 30.5 µM.
In the case of `Cc1cc(C)c(N)cc1C` [2,4,5-Trimethylaniline], the IC50 in series [1] is 15.8 µM; in [2] (CYP1A2 IC50) it was 0.87 µM; in [2] (IC50 CYP1A2 assay), 0.79 µM; in series [3] (CYP2C9 IC50) it was 32.9 µM; in series [4] (CYP2C19 IC50), 9.81 µM; in series [5] (CYP2D6 IC50), 38.1 µM. This molecule returned an IC50 in [6] (CYP3A4 IC50) of 35.5 µM.
As usually defined, the AC50 is the concentration at which the activity in the assay is half-maximal. `O=S(=O)(Oc1ccc(Cl)cc1Cl)c1ccccc1` [2,4-Dichlorophenyl benzenesulfonate]: the IC50 is 54.6 µM in [1]; 1.58 µM in series [2] (setting [10]); 39.2 µM in [3] (setting [11]); 0.49 µM in series [4] (setting [12]); 0.42 µM in [4] (IC50 CYP2C19 assay); 64.4 µM in [5] (setting [13]). In series [6] (setting [14]), this molecule displayed an IC50 of 2.12 µM. The AC50 amounted to 2.24 µM in series [2] (setting [15]); 35.7 µM in series [3]; 0.77 µM in series [4]; 51.1 µM in series [5] (setting [16]); 3.27 µM in [6] (setting [17]).
Take `Cc1cccc2sc(N)nc12` [2-Amino-4-methylbenzothiazole]: in series [8], the “CYP2C9 AC50 (half-maximal activity concentration)” value (“CYP2C9 AC50” for short) is listed as “Inconclusive inhibitor”. Also, the half-maximal activity concentration (AC50) was 21.2 µM in [2] (setting [15]), 27.8 µM in [4], 41.1 µM in [5] (setting [16]) and 11.8 µM in series [6] (setting [17]).
For the molecule `O=C1C(=O)c2cccc3cccc1c23` [Acenaphthenequinone], in series [8], the “CYP2C9 AC50” value is on record as “Inconclusive inhibitor”. For the same molecule, the concentration at half-maximal activity (AC50) turned out to be 7.99 µM in [2] (setting [15]), 35.7 µM in series [4], 23.4 µM in series [5] (setting [16]) and 23.7 µM in series [6] (setting [17]).
As to `COc1ccc(C(O)(c2cncnc2)C2CC2)cc1` (stereo not shown) [Ancymidol], the “Luciferase IC50 (half-maximal inhibitory concentration)” value in [1] is reported as “Inactive”. Also, the “CYP1A2 IC50 (half-maximal inhibitory concentration)” value in [7] was “Inactive”. Moreover, the IC50 turned out to be 38.2 µM in series [3] (setting [11]), 19.3 µM in series [4] (setting [12]), 47 µM in [5] (setting [13]) and 0.8 µM in series [6] (setting [14]).
Take `COc1cc(N)c(Cl)cc1C(=O)NC1CCN(Cc2ccccc2)CC1` [Clebopride maleate]: the “Luciferase IC50 (half-maximal inhibitory concentration)” value in series [1] was “Inactive”. Further, in series [7], the “CYP1A2 IC50 (half-maximal inhibitory concentration)” value is listed as “Inactive”. For the same molecule, in [8], the “CYP2C9 IC50 (half-maximal inhibitory concentration)” value is given as “Inactive”. The IC50 in series [4] stood at 38.9 µM; in series [5], 0.03 µM; in series [6], 2.06 ± 0.47 µM.
Take `COC(=O)N(C(=O)N1CO[C@@]2(C(=O)OC)Cc3cc(Cl)ccc3C2=N1)c1ccc(OC(F)(F)F)cc1` [Indoxacarb]: the “Luciferase IC50 (half-maximal inhibitory concentration)” value in series [1] is recorded as “Inactive”. Moreover, in series [7], the “CYP1A2 IC50 (half-maximal inhibitory concentration)” value is recorded as “Inactive”. Further, the IC50 amounted to 3.35 µM in [3] (setting [11]), 0.17 µM in series [4] (setting [12]), 14 µM in series [5] (setting [13]) and 2.61 µM in [6] (setting [14]).
`Cc1ccnc2ccccc12` [Lepidine]: the “CYP2C9 AC50” value in series [8] is “Inconclusive activator”. In addition, in series [9], the “CYP2C19 AC50 (half-maximal activity concentration)” value was “Inconclusive”. In addition, the results for the AC50 in [2], in [5] and in series [6] were 38.4 µM, 61.3 µM and 31.1 µM, respectively.
As to `COc1cccc(C(=O)NN(C(=O)c2cc(C)cc(C)c2)C(C)(C)C)c1C` [Methoxyfenozide], the “Luciferase IC50 (half-maximal inhibitory concentration)” value in series [1] is reported as “Inactive”. The “CYP1A2 IC50 (half-maximal inhibitory concentration)” value in [7] is “Inactive”. For the same molecule, the half-maximal inhibitory concentration (IC50) amounted to 18.1 µM in [3] (setting [11]), 3.43 µM in series [4] (setting [12]), 44 µM in series [5] (setting [13]) and 0.74 µM in [6] (setting [14]).
Turning to `CC(=O)[C@H]1CC[C@H]2[C@@H]3CCC4=CC(=O)CC[C@]4(C)[C@H]3CC[C@]12C` [Progesterone], the AC50 in [2] (setting [15]) turned out to be 29.9 µM; in series [3], 26.5 µM; in series [4], 4.06 µM; in series [5] (setting [16]) it was 47.7 µM; in series [6] (setting [17]), 2.35 µM.
With `CNC(=O)Oc1cc(C)cc(C(C)C)c1` [Promecarb], in series [8], the “CYP2C9 AC50” value is “Inactive”. The AC50 in series [2] (setting [15]) is 26.9 µM; in [4], 42.2 µM; in [5] (setting [16]), 58.1 µM; in series [6] (setting [17]), 25.3 µM.
The like results for `O=C(CCN1CCC(c2ccccc2)C1)c1ccc2c(c1)OCCO2` (stereo not shown) [Proroxan] were, in that order, “Inconclusive inhibitor”, 32.3 µM, 39.1 µM, 2.28 µM and 28.8 µM.
On to `CCOC(=O)C(C)Oc1ccc(Oc2cnc3cc(Cl)ccc3n2)cc1` (stereo not shown) [Quizalofop-ethyl], for which the AC50 turned out to be 36.3 µM in [2] (setting [15]); 17.4 µM in series [3]; 36.2 µM in [4]; 42.5 µM in [5] (setting [16]); 12.3 µM in series [6] (setting [17]).
Take `COP(=O)(OC)OC(=CCl)c1cc(Cl)c(Cl)cc1Cl` [Tetrachlorovinphos]: the AC50 in series [2] (setting [15]) was determined as 3 µM; in series [3], 29 µM; in series [4] it was 6.81 µM; in series [5] (setting [16]), 33.7 µM; in series [6] (setting [17]), 3.72 µM.
As for `Cc1ccccc1OP(=O)(Oc1ccccc1C)Oc1ccccc1C` [Tri-o-cresyl phosphate], the AC50 in [2] (setting [15]) turned out to be 32 µM; in [3], 4.9 µM; in series [4], 1.3 µM; in series [5] (setting [16]), 43.3 µM; in [6] (setting [17]), 2.11 µM.
On the same counts, the results for `COP(=O)(OC)O/C(=C\Cl)c1cc(Cl)c(Cl)cc1Cl` [Z-Tetrachlorvinphos] are 2.28 µM, 38.8 µM, 5.82 µM, 56.6 µM and 2.49 µM.

The values are drawn from article PMC12155096 (International Journal of Molecular Sciences, 2025).
